Test results: PubChem BioAssay (NCI)
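GI50: concentration for 50% inhibition of growth. The concentration for full growth arrest is given as TGI.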

Columns and labels:
Test in all cases: NCI anticancer screen, dose series, 384-well format
786-0 renal = system: 786-0 renal
A498 renal = system: A498 renal
A549 NSCLC = system: A549 NSCLC
ACHN renal = system: ACHN renal
BT-549 breast = system: BT-549 breast
CAKI-1 renal = system: CAKI-1 renal
CCRF-CEM leukemia = system: CCRF-CEM leukemia
COLO 205 colon = system: COLO 205 colon
DU-145 prostate = system: DU-145 prostate
EKVX NSCLC = system: EKVX NSCLC
HCC-2998 colon = system: HCC-2998 colon
HCT-116 colon = system: HCT-116 colon
HCT-15 colon = system: HCT-15 colon
HL-60(TB) leukemia = system: HL-60(TB) leukemia
HOP-62 NSCLC = system: HOP-62 NSCLC
HOP-92 NSCLC = system: HOP-92 NSCLC
HS 578T breast = system: HS 578T breast
HT29 colon = system: HT29 colon
IGROV1 ovarian = system: IGROV1 ovarian
K-562 leukemia = system: K-562 leukemia
KM12 colon = system: KM12 colon
LOX IMVI melanoma = system: LOX IMVI melanoma
M14 melanoma = system: M14 melanoma
MALME-3M melanoma = system: MALME-3M melanoma
MCF7 breast = system: MCF7 breast
MDA-MB-435 melanoma = system: MDA-MB-435 melanoma
MDA-MB-468 breast = system: MDA-MB-468 breast
MOLT-4 leukemia = system: MOLT-4 leukemia
NCI-H226 lung = system: NCI-H226 lung
NCI-H23 lung = system: NCI-H23 lung
NCI-H322M lung = system: NCI-H322M lung
NCI-H460 NSCLC = system: NCI-H460 NSCLC
NCI-H522 lung = system: NCI-H522 lung
NCI/ADR-RES ovarian = system: NCI/ADR-RES ovarian
OVCAR-3 ovarian = system: OVCAR-3 ovarian
OVCAR-4 ovarian = system: OVCAR-4 ovarian
OVCAR-8 ovarian = system: OVCAR-8 ovarian
PC-3 prostate = system: PC-3 prostate
RPMI-8226 leukemia = system: RPMI-8226 leukemia
RXF 393 renal = system: RXF 393 renal
SF-268 CNS = system: SF-268 CNS
SF-295 CNS = system: SF-295 CNS
SF-539 CNS = system: SF-539 CNS
SK-MEL-2 melanoma = system: SK-MEL-2 melanoma
SK-MEL-28 melanoma = system: SK-MEL-28 melanoma
SK-MEL-5 melanoma = system: SK-MEL-5 melanoma
SK-OV-3 ovarian = system: SK-OV-3 ovarian
SN12C renal = system: SN12C renal
SNB-19 CNS = system: SNB-19 CNS
SNB-75 CNS = system: SNB-75 CNS
SW-620 colon = system: SW-620 colon
TK-10 renal = system: TK-10 renal
U251 glioblastoma = system: U251 glioblastoma
UACC-257 melanoma = system: UACC-257 melanoma
UACC-62 melanoma = system: UACC-62 melanoma
MDA-MB-231 breast = system: MDA-MB-231 breast
OVCAR-5 ovarian = system: OVCAR-5 ovarian
SR leukemia = system: SR leukemia
T-47D breast = system: T-47D breast
UO-31 renal = system: UO-31 renal

## O=C(Nc1cccc(Br)c1)Oc1cccc2cccnc12
786-0 renal
  GI50: 16.3 µM
  TGI: 33.9 µM
A498 renal
  GI50: 12.9 µM
  TGI: 26.3 µM
A549 NSCLC
  GI50: 13.8 µM
  TGI: 32.8 µM
ACHN renal
  GI50: 6.26 µM
  TGI: 27.1 µM
BT-549 breast
  GI50: 6.95 µM
  TGI: 22 µM
CAKI-1 renal
  GI50: 2.35 µM
  TGI: 4.98 µM
CCRF-CEM leukemia
  GI50: 1940 nM
  TGI: 3.43 µM
COLO 205 colon
  GI50: 2610 nM
  TGI: 4.87 µM
DU-145 prostate
  GI50: 8.98 µM
  TGI: 36.7 µM
EKVX NSCLC
  GI50: 2.39 µM
  TGI: 4.96 µM
HCC-2998 colon
  GI50: 16.2 µM
  TGI: 30.1 µM
HCT-116 colon
  GI50: 2.4 µM
  TGI: 4.37 µM
HCT-15 colon
  GI50: 3.4 µM
  TGI: 9.07 µM
HL-60(TB) leukemia
  GI50: 1.73 µM
  TGI: 3.11 µM
HOP-62 NSCLC
  GI50: 7.61 µM
  TGI: 18.8 µM
HOP-92 NSCLC
  GI50: 4.02 µM
  TGI: 10.5 µM
HS 578T breast
  GI50: 16.7 µM
  TGI: 39.8 µM
HT29 colon
  GI50: 8.98 µM
  TGI: 21.2 µM
IGROV1 ovarian
  GI50: 2.23 µM
  TGI: 4.46 µM
K-562 leukemia
  GI50: 23.5 µM
  TGI: 50.3 µM
KM12 colon
  GI50: 5.99 µM
  TGI: 18.1 µM
LOX IMVI melanoma
  GI50: 2.95 µM
  TGI: 10.8 µM
M14 melanoma
  GI50: 2.78 µM
  TGI: 6.06 µM
MALME-3M melanoma
  GI50: 4.16 µM
  TGI: 13.1 µM
MCF7 breast
  GI50: 2.23 µM
  TGI: 4.47 µM
MDA-MB-435 melanoma
  GI50: 12.6 µM
  TGI: 30.4 µM
MDA-MB-468 breast
  GI50: 2.82 µM
  TGI: 4.48 µM
MOLT-4 leukemia
  GI50: 1.99 µM
  TGI: 3.47 µM
NCI-H226 lung
  GI50: 1.74 µM
  TGI: 3.42 µM
NCI-H23 lung
  GI50: 2.01 µM
  TGI: 3.73 µM
NCI-H322M lung
  GI50: 17.5 µM
  TGI: 43 µM
NCI-H460 NSCLC
  GI50: 2.76 µM
  TGI: 6.44 µM
NCI-H522 lung
  GI50: 2180 nM
  TGI: 4.32 µM
NCI/ADR-RES ovarian
  GI50: 2.43 µM
  TGI: 4.56 µM
OVCAR-3 ovarian
  GI50: 2.12 µM
  TGI: 3.92 µM
OVCAR-4 ovarian
  GI50: 4.82 µM
  TGI: 14.9 µM
OVCAR-8 ovarian
  GI50: 2.56 µM
  TGI: 5.3 µM
PC-3 prostate
  GI50: 2.79 µM
  TGI: 5.48 µM
RPMI-8226 leukemia
  GI50: 2.26 µM
  TGI: 3.75 µM
RXF 393 renal
  GI50: 3.5 µM
  TGI: 7.85 µM
SF-268 CNS
  GI50: 3.69 µM
  TGI: 9.11 µM
SF-295 CNS
  GI50: 7.95 µM
  TGI: 23.6 µM
SF-539 CNS
  GI50: 5.79 µM
  TGI: 17.1 µM
SK-MEL-2 melanoma
  GI50: 2800 nM
  TGI: 5.41 µM
SK-MEL-28 melanoma
  GI50: 4.56 µM
  TGI: 15.1 µM
SK-MEL-5 melanoma
  GI50: 5.81 µM
  TGI: 17.9 µM
SK-OV-3 ovarian
  GI50: 17.9 µM
  TGI: 34.3 µM
SN12C renal
  GI50: 4.46 µM
  TGI: 15.4 µM
SNB-19 CNS
  GI50: 9.79 µM
  TGI: 38.3 µM
SNB-75 CNS
  GI50: 4.08 µM
  TGI: 12.9 µM
SW-620 colon
  GI50: 6.19 µM
  TGI: 36.7 µM
TK-10 renal
  GI50: 6.51 µM
  TGI: 33.5 µM
U251 glioblastoma
  GI50: 5.89 µM
  TGI: 17.4 µM
UACC-257 melanoma
  GI50: 2280 nM
  TGI: 4.16 µM
UACC-62 melanoma
  GI50: 3.74 µM
  TGI: 9.42 µM

## Cc1c(C(=O)Nc2ccc(N3C[C@@H](C)O[C@@H](C)C3)nc2)cccc1-c1ccc(OC(F)(F)F)cc1
786-0 renal
  GI50: 6.53 µM
  TGI: 17.5 µM
A498 renal
  GI50: 7 µM
  TGI: 12.7 µM
A549 NSCLC
  GI50: 6.24 µM
  TGI: 11.7 µM
ACHN renal
  GI50: 11.4 µM
  TGI: 24.8 µM
BT-549 breast
  GI50: 8.61 µM
  TGI: 22.1 µM
CAKI-1 renal
  GI50: 14.7 µM
  TGI: 28 µM
COLO 205 colon
  GI50: 3350 nM
  TGI: 4.86 µM
DU-145 prostate
  GI50: 8.5 µM
  TGI: 20.9 µM
EKVX NSCLC
  GI50: 5.38 µM
  TGI: 12.6 µM
HCC-2998 colon
  GI50: 11.9 µM
  TGI: 16.5 µM
HCT-116 colon
  GI50: 6.16 µM
  TGI: 17.8 µM
HCT-15 colon
  GI50: 7.15 µM
  TGI: 13.3 µM
HL-60(TB) leukemia
  GI50: 6.8 µM
  TGI: 12.7 µM
HOP-62 NSCLC
  GI50: 2.23 µM
  TGI: 4.12 µM
HOP-92 NSCLC
  GI50: 5.92 µM
  TGI: 14 µM
HS 578T breast
  GI50: 8.01 µM
  TGI: 20.9 µM
HT29 colon
  GI50: 3.55 µM
  TGI: 5.04 µM
IGROV1 ovarian
  GI50: 12.3 µM
  TGI: 25.4 µM
KM12 colon
  GI50: 12 µM
  TGI: 16.6 µM
LOX IMVI melanoma
  GI50: 7.94 µM
  TGI: 13.8 µM
M14 melanoma
  GI50: 16 µM
  TGI: 30.4 µM
MALME-3M melanoma
  GI50: 7.69 µM
  TGI: 19.6 µM
MCF7 breast
  GI50: 7.5 µM
  TGI: 13.7 µM
MDA-MB-231 breast
  GI50: 3.63 µM
  TGI: 14.8 µM
MDA-MB-435 melanoma
  GI50: 17.6 µM
  TGI: 32.7 µM
MDA-MB-468 breast
  GI50: 5.63 µM
  TGI: 11.3 µM
MOLT-4 leukemia
  GI50: 4.21 µM
  TGI: 15.4 µM
NCI-H226 lung
  GI50: 6.16 µM
  TGI: 12.8 µM
NCI-H23 lung
  GI50: 7.39 µM
  TGI: 13.5 µM
NCI-H322M lung
  GI50: 13.3 µM
  TGI: 26.3 µM
NCI-H460 NSCLC
  GI50: 9.46 µM
  TGI: 14.5 µM
NCI-H522 lung
  GI50: 1900 nM
  TGI: 3.79 µM
NCI/ADR-RES ovarian
  GI50: 5.04 µM
  TGI: 18 µM
OVCAR-3 ovarian
  GI50: 10.6 µM
  TGI: 15.3 µM
OVCAR-4 ovarian
  GI50: 4.99 µM
  TGI: 14.9 µM
OVCAR-5 ovarian
  GI50: 16.6 µM
  TGI: 30.7 µM
OVCAR-8 ovarian
  GI50: 10.6 µM
  TGI: 15.3 µM
PC-3 prostate
  GI50: 12.4 µM
  TGI: 25 µM
RPMI-8226 leukemia
  GI50: 6.67 µM
  TGI: 12.7 µM
RXF 393 renal
  GI50: 4.85 µM
  TGI: 8.09 µM
SF-295 CNS
  GI50: 8.16 µM
SF-539 CNS
  GI50: 11.2 µM
  TGI: 18.1 µM
SK-MEL-28 melanoma
  GI50: 12.3 µM
  TGI: 17.8 µM
SK-MEL-5 melanoma
  GI50: 7.06 µM
  TGI: 13.1 µM
SK-OV-3 ovarian
  GI50: 3.89 µM
  TGI: 5.34 µM
SN12C renal
  GI50: 13.7 µM
  TGI: 26.8 µM
SNB-19 CNS
  GI50: 15 µM
  TGI: 28.4 µM
SNB-75 CNS
  GI50: 5.67 µM
SR leukemia
  GI50: 5.32 µM
  TGI: 13.4 µM
T-47D breast
  GI50: 1470 nM
  TGI: 3.43 µM
U251 glioblastoma
  GI50: > 31.6 µM
  TGI: > 31.6 µM
UACC-62 melanoma
  GI50: 13 µM
  TGI: 17.5 µM
UO-31 renal
  GI50: > 40.2 µM
  TGI: > 54.6 µM
